Experimental data: publication PMC4516315 (Journal of Medicinal Chemistry, 2015)

Target: T1, recombinant P. falciparum DHODH (Plasmodium falciparum, UniProt Q08210)
T1 sequence (Q08210 24-569): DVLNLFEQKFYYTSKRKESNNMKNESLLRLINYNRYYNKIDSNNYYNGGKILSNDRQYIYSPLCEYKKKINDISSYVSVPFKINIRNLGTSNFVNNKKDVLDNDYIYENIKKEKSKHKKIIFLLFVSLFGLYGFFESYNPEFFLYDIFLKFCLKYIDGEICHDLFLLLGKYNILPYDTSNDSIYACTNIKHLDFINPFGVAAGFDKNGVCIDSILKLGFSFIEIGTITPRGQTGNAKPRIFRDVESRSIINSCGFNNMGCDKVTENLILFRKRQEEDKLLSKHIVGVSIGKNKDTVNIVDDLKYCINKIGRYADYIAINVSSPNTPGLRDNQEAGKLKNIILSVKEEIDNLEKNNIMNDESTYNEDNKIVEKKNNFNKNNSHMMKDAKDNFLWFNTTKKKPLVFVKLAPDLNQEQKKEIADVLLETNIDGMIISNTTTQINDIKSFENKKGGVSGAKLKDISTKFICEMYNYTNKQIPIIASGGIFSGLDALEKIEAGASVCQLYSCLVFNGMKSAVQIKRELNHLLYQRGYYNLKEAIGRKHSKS
Experiment: P. falciparum DHODH enzymatic assay
Conditions: biochemical assay

inhibition of recombinant P. falciparum DHODH	Structure (SMILES)
completely devoid of effect	Cc1ccc(-n2nc(OC(C)C)c(Oc3c(F)cccc3F)c2C)nn1 [22a, 3-(4-(2,6-Difluorophenoxy)-3-isopropoxy-5-methyl-1H-pyrazol-1-yl)-6-methylpyridazine]
completely devoid of effect	Cc1c(Oc2c(F)cccc2F)c(OC(C)C)nn1-c1ccc(C2CC2)nn1 [compound 10q, 3-Cyclopropyl-6-(4-(2,6-difluorophenoxy)-3-isopropoxy-5-methyl-1H-pyrazol-1-yl)pyridazine]
